Patent EP0668872B1 (priority 1992, dated 1994)

System: calcium channels
Details: read-out: IC50 values for blocking calcium channels; cerebellar granule cells of 8 day old rats, 6, 7 and 8 days of culture; fura2/AM fluorescence, 37°C

Question: How did the IC50 turn out when COc1ccc(CCN(C)CCCC(C#N)(c2ccc(OC)c(OC)c2)C(C)C)cc1OC (stereo not shown) [Verapamil] was run?
Answer: 4.8 µM
